Results published in patent US8168628B2, “Conjugated psychotropic drugs and uses thereof” (Ramot at Tel-Aviv University Ltd., priority 2001, dated 2012).
Where a name gives a salt, the structure may show the parent alone. Read-outs that look alike come from different tables or passages of the source.

Experiments:
Normal rat fibroblasts = test: Proliferation test, normal rat fibroblasts; format: cell-based; conditions: Fibroblast, linear regression of survival percentage
Protocol: The primary cultures of rat fibroblasts were obtained from neonatal rats using known procedures.
(§1) Proliferation of cancer and normal cells: Proliferation was measured by neutral red assay or by a fluorometric assay quantitating DNA content. In the neutral red assay, the neutral red is absorbed by lysosomes, thus causing coloring of living cells. Quantitative analysis is performed by colorimetric assay (ELISA reader at 550 nm). In the fluorometric assay, alamar blue is used as a redox indicator. Alamar blue fluorescence was measured at an excitation wavelength of 544 nm and an emission wavelength of […] (FLUOstar BMG Lab Technologies, Offenburg, Germany).
(§2) The cells were sub-cultured and the tested compounds were added thereto in increasing concentrations. The IC50 values were determined by linear regression of the survival percentage of the cells.

[1] = Stability upon prolonged storage (NMR); format: physicochemical; conditions: about 3 months storage; NMR spectroscopy
mice = test: Catalepsy in mice (bar between two cages); format: in vivo, mouse
Protocol: Young adult male and female mice were purchased from Harlan, Israel. The animals were housed for 4-7 days under controlled conditions prior to experimentation. Experiments were conducted in a double blind procedure. In each experiment various treatment groups (about 10 animals each) were tested.
Catalepsy in mice: The appearance of stereotypic cataleptic behavior in mice following the neuroleptic treatment was measured in two different sets of experiments.
The catalepsy was determined using a system of two cages and a bar therebetween. The mouse was hung in the middle of the bar, and the percentage of animals reaching the target within 2 minutes was monitored 1 hour, 2 hours and 3 hours following the treatment.
The catalepsy was determined using the system described hereinabove. The mouse was hung in the middle of the bar, and the time it took the animal to reach the target was measured.

rat myocytes = tested on: rat myocytes
Protocol: Toxicity: In vitro toxicity was determined by measuring the effect of the tested compounds (either known neuroleptics or the chemical conjugates of the invention) on primary cultures of neurons and whole brain neuron and glia cells obtained from the brains of neonatal mice. In vitro toxicity of perphenazine and its chemical conjugate AN 168 was also determined with rat myocytes. Acute toxicity in vivo as determined by the LD50 was evaluated on 2 months old ICR mice following the administration of a single intraperitoneal bolus-dose of drug.

PC-3 = test: Proliferation test, PC-3 cells; format: cell-based; conditions: Homo sapiens, linear regression of survival percentage
Protocol: (§3) Cell lines: Human prostate carcinoma (PC-3), human colon carcinoma (HT-29), murine melanoma (B-16) and its drug resistant subclone (B-16 MDR), mouse fibroblasts (3T3), myeloid leukemia (HL 60) and its drug resistant subclone (HL 60 MX2), endometrium cell line (MES SA) and its drug resistant subclone (MES DX5), jurkat T lymphoma and monocyte leukemia (U-937), were used in this study.
as §1, §2

C6 rat glioma cells [2] = test: Viability of C6 rat glioma cells (neutral red); format: cell-based
Protocol: as §1
The cells were sub-cultured and the tested compounds were added thereto in increasing concentrations, up to 100 μM.

HT-29 = test: Proliferation test, HT-29 cells; format: cell-based; conditions: Homo sapiens, linear regression of survival percentage
Protocol: as §3, §1, §2

B16 MDR = test: Proliferation test, B16 MDR cells; format: cell-based, murine; conditions: Mus musculus; linear regression of survival percentage
Protocol: as §3, §1, §2

Jurkat T lymphoma cells = test: Proliferation / viability test, Jurkat T lymphoma cells; format: cell-based; conditions: Homo sapiens
Protocol: as §3, §1, §2

MES SA = test: Proliferation test, MES SA cells; format: cell-based; conditions: Homo sapiens, linear regression of survival percentage
Protocol: as §3, §1, §2

HL 60 MX2 (MDR) = test: Proliferation test, HL 60 MX2 (MDR) cells; format: cell-based; conditions: Homo sapiens, HL60/MX2; linear regression of survival percentage
Protocol: as §3, §1, §2

C6 rat glioma cells [3] = test: Chemosensitization in C6 rat glioma cells; format: cell-based
Protocol: Chemosensitization: The chemosensitizing effect of perphenazine and its chemical conjugate AN 168 was measured in vitro. Various concentrations of perphenazine or AN 168 were co-administered together with a chemotherapeutic agent to either C6 rat glioma cells or to Jurkat T lymphoma cells. Cells viability and/or DNA fragmentation following treatment with either the chemotherapeutic agent, perphenazine, AN 168, a combination of the chemotherapeutic agent and perphenazine or a combination of a chemotherapeutic agent with AN 168 were measured as described hereinabove.

HL 60 = test: Proliferation test, HL 60 cells; format: cell-based; conditions: Homo sapiens, linear regression of survival percentage
Protocol: as §3, §1, §2

U-937 = test: Proliferation test, U-937 cells; format: cell-based; conditions: Homo sapiens, linear regression of survival percentage
Protocol: as §3, §1, §2

C6 rat glioma cells [4] = test: DNA fragmentation in C6 rat glioma cells (propidium iodide flow cytometry); format: cell-based; conditions: Cisplatin 30 μM; perphenazine 25 and 50 μM; AN 168 25, 50 μM (FIG. 18)
Protocol: Apoptosis and DNA fragmentation: Fragmentation of cell nuclei was studied by flow cytometric analysis of propidium iodide-stained cells. This analysis was performed using a FACScan (Becton Dickinson, Mountain View, Calif.) equipped with an argon ion laser adjusted to an excitation wavelength of 480 nm and with a Doublet Discrimination Module (DDM). Lysis II (Becton Dickinson) software was used for data acquisition. Apoptotic nuclear changes were evaluated according to the criteria of Nicolletti et al..
The DNA fragmentation was determined by the propidium iodide flow cytometric method described hereinabove.

rats = conditions: rat, in vivo
Protocol: Animals: Young adult male rats (150-230 grams) were purchased from Harlan (Israel). Animals were divided 2-5/cage and housed in controlled conditions in the animal room for a week prior to the experiments. The experiments were conducted with naive animals, in a double blind procedure. In each experiment various treatment groups (about 5-10 animals each) were tested.
Catalepsy in rats: The manifestation of the extrapyramidal adverse effects induced by typical neuroleptics was evaluated by the appearance of stereotypic cataleptic behavior in rats following the neuroleptic treatment. Catalepsy was determined by two methods: (i) by measuring the time it took an animal hanging on a cage wall to move its hind legs and reach a flat surface (the “wall” test); and (ii) rats were placed on a flat surface with their anterior limbs leaning on a flat bar (5.5 cm height) resembling a piano playing position. Catalepsy was determined by the time it took an animal to descend and reach the flat surface (the “piano” test). The maximum time of follow up was 2 minutes and these measurements were performed hourly and individually for each animal. These tests provide an assessment of central dopamine (DA) blocking activity and are acceptable criteria for extrapyramidal symptoms induced by anti-psychotic drugs [10].
A control animals group was treated with the vehicle (lactic acid) only.

prolactin = test: Prolactin blood level in rats (enzyme immunometric assay); format: in vivo, rat
Text: Prolactin secretion: Typical neuroleptics induce hyperprolactinemia, which is frequently associated with gallactorehea and impaired gonadal and sexual function. The measurement of the circulatory plasma prolactin level was therefore used as a sensitive biochemical marker for the psychotropic activity of the known neuroleptics and the chemical conjugates of the present invention, following intraperitoneal or oral administration thereof. Thus, blood was collected from the punctured eye orbital of rats under ether anesthesia and the assay was performed using Millennia, rat prolactin enzyme immunometric assay-kit (DPC, USA).

[5] = C6 glioma (MDR) cells, 24 hours (FIG. 14)

NCCCC(=O)OCCN1CCN(CCCN2c3ccccc3Sc3ccc(Cl)cc32)CC1 [AN-168, Perphenazine 4-aminobutyrate Trihydrochloride]
IC50 (Normal rat fibroblasts): 45.8 µM | stability upon prolonged storage [1]: slow decomposition, probably due to hydrolysis, occurred | catalepsy: percentage of animals reaching the target within 2 minutes (mice; adult male mice, 1.5 mg/kg perphenazine or equimolar dose (FIG. 7a)): substantially lower disability | catalepsy: time it took the animals to reach the target (mice; young female mice, 2.5 mg/kg perphenazine or equimolar dose, 2 and 3 hours after treatment (FIG. 7b)): much faster than the animals treated with perphenazine alone | decrease in cells viability (rat myocytes): did not cause any decrease in cells viability at all concentrations | IC50 (PC-3): 45.5 µM | anti-proliferative activity in C6 glioma cells (C6 rat glioma cells [2]; [5]): high anti-proliferative activity | concentration causing substantial cell death (C6 rat glioma cells [2]; [5]): about 20 μM | IC50 (C6 rat glioma cells [2]; Rattus norvegicus, Glioma cell, 24 hours treatment, neutral red, up to 100 μM (FIG. 14)): 24.2 µM | IC50 (HT-29): 23.1 ± 9 µM | IC50 (B16 MDR): 23 ± 16 µM | IC50 (Jurkat T lymphoma cells; alamar blue method (FIG. 15), read-out: IC50, Jurkat T lymphoma cells viability): 19 µM | IC50 (Jurkat T lymphoma cells; linear regression of survival percentage, read-out: IC50, JURKAT): 11.3 µM | IC50 (MES SA): 18.2 µM | IC50 (HL 60 MX2 (MDR)): 18.4 µM | chemosensitizing effect, co-administration with Vincistine (C6 rat glioma cells [3]; 24 hours, Vincistine 30 μM, conjugate even at 5 μM (FIG. 16)): substantially enhance the cytotoxic effect thereof | cells viability, combined treatment of Cisplatin and AN 168 (C6 rat glioma cells [3]; Cisplatin 5-50 μM plus 10 and 15 μM AN 168, neutral red (FIG. 17)): rendered the cells susceptible to the chemotherapeutic drug | IC50 (HL 60): 15.1 µM | IC50 (U-937): 14.2 µM | DNA fragmentation (C6 rat glioma cells [4]): induced a dramatically increase in DNA fragmentation | time course of catalepsy (rats; male, ip): no catalepsy through the entire 7 hours period | time course of catalepsy, conjugate versus mixture (rats; male, ip, 120 min): abolished after 120 minutes | average of total catalepsy as percentage of the perphenazine-induced catalepsy (rats): reduced the induced catalepsy to almost a zero value | total catalepsy, conjugate versus mixture (rats; ip): very low catalepsy | induced catalepsy, SAR studies (rats; ip, 5 mg/kg): almost maximal reduction of induced catalepsy | total catalepsy (rats; ip, 5 mg/kg): did not induce catalepsy at all | total catalepsy (rats; po): cataleptic symptoms were almost abolished | time at which prolactin blood level peaked (prolactin; i.p., measured at 0, 60 and 120 min after treatment): 60 min | prolactin blood level compared with perphenazine (prolactin; oral, higher dose, 0, 90, 180 min (FIG. 12)): much higher as compared with animals treated with perphenazine
